Laboratory results reported in PubChem BioAssay (NCI).
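Each compound was tested at five concentrations against cells in 96-well plates for 48 hours. GI50 marks 50% less growth. At the TGI there is no net growth.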

How the values were obtained:
Experiment in all cases: NCI-60 cell line screen, 48 h
EKVX NSCLC = tested on: EKVX NSCLC
HT29 colon = tested on: HT29 colon
OVCAR-4 ovarian = tested on: OVCAR-4 ovarian
SR leukemia = tested on: SR leukemia
SK-MEL-28 melanoma = tested on: SK-MEL-28 melanoma
MALME-3M melanoma = tested on: MALME-3M melanoma
NCI-H23 lung = tested on: NCI-H23 lung
NCI-H226 lung = tested on: NCI-H226 lung
A498 renal = tested on: A498 renal
M14 melanoma = tested on: M14 melanoma
U251 CNS = tested on: U251 CNS
CCRF-CEM leukemia = tested on: CCRF-CEM leukemia
KM12 colon = tested on: KM12 colon
MCF7 breast = tested on: MCF7 breast
SF-268 CNS = tested on: SF-268 CNS
OVCAR-5 ovarian = tested on: OVCAR-5 ovarian
DU-145 prostate = tested on: DU-145 prostate
MOLT-4 leukemia = tested on: MOLT-4 leukemia
NCI-H460 lung = tested on: NCI-H460 lung
LOX IMVI melanoma = tested on: LOX IMVI melanoma
OVCAR-8 ovarian = tested on: OVCAR-8 ovarian
786-0 renal = tested on: 786-0 renal
HOP-92 NSCLC = tested on: HOP-92 NSCLC
HOP-62 NSCLC = tested on: HOP-62 NSCLC
OVCAR-3 ovarian = tested on: OVCAR-3 ovarian
RPMI-8226 leukemia = tested on: RPMI-8226 leukemia
K-562 leukemia = tested on: K-562 leukemia
NCI/ADR-RES ovarian = tested on: NCI/ADR-RES ovarian
HL-60(TB) leukemia = tested on: HL-60(TB) leukemia
BT-549 breast = tested on: BT-549 breast
SK-OV-3 ovarian = tested on: SK-OV-3 ovarian
SK-MEL-5 melanoma = tested on: SK-MEL-5 melanoma
HCC-2998 colon = tested on: HCC-2998 colon
SF-295 CNS = tested on: SF-295 CNS
MDA-MB-435 = tested on: MDA-MB-435
COLO 205 colon = tested on: COLO 205 colon
A549 NSCLC = tested on: A549 NSCLC
SW-620 colon = tested on: SW-620 colon
NCI-H522 lung = tested on: NCI-H522 lung
SF-539 CNS = tested on: SF-539 CNS
HS 578T breast = tested on: HS 578T breast
UACC-257 melanoma = tested on: UACC-257 melanoma
HCT-15 colon = tested on: HCT-15 colon
IGROV1 ovarian = tested on: IGROV1 ovarian
UO-31 renal = tested on: UO-31 renal
SNB-19 CNS = tested on: SNB-19 CNS
SN12C renal = tested on: SN12C renal
HCT-116 colon = tested on: HCT-116 colon
CAKI-1 renal = tested on: CAKI-1 renal
TK-10 renal = tested on: TK-10 renal
UACC-62 melanoma = tested on: UACC-62 melanoma
T-47D breast = tested on: T-47D breast
MDA-MB-231 breast = tested on: MDA-MB-231 breast
ACHN renal = tested on: ACHN renal
PC-3 prostate = tested on: PC-3 prostate
RXF 393 renal = tested on: RXF 393 renal
SNB-75 CNS = tested on: SNB-75 CNS

COC1=CC(c2ccc[nH]2)=N/C1=C\c1[nH]c(C)c(C(=O)CCCCC(=O)NCc2ccccc2)c1C
GI50 (EKVX NSCLC): 4.2 µM | TGI (EKVX NSCLC): 18.1 µM | GI50 (HT29 colon): 0.723 µM | TGI (HT29 colon): 5.67 µM | GI50 (OVCAR-4 ovarian): 6.31 µM | TGI (OVCAR-4 ovarian): 23.4 µM | GI50 (SR leukemia): 1.14 µM | TGI (SR leukemia): 3.3 µM | GI50 (SK-MEL-28 melanoma): 2.07 µM | TGI (SK-MEL-28 melanoma): 4.64 µM | GI50 (MALME-3M melanoma): 2.56 µM | TGI (MALME-3M melanoma): 5.57 µM | GI50 (NCI-H23 lung): 2.47 µM | TGI (NCI-H23 lung): 11 µM | GI50 (NCI-H226 lung): 2.73 µM | TGI (NCI-H226 lung): 10.9 µM | GI50 (A498 renal): 15.5 µM | TGI (A498 renal): 35.3 µM | GI50 (M14 melanoma): 2.68 µM | TGI (M14 melanoma): 7.36 µM | GI50 (U251 CNS): 1.43 µM | TGI (U251 CNS): 2.95 µM | GI50 (CCRF-CEM leukemia): 0.673 µM | TGI (CCRF-CEM leukemia): 6.98 µM | GI50 (KM12 colon): 1.38 µM | TGI (KM12 colon): 3.02 µM | GI50 (MCF7 breast): 1.6 µM | TGI (MCF7 breast): 3.44 µM | GI50 (SF-268 CNS): 1.82 µM | TGI (SF-268 CNS): 6.04 µM | GI50 (OVCAR-5 ovarian): 7.18 µM | TGI (OVCAR-5 ovarian): 21.3 µM | GI50 (DU-145 prostate): 1.64 µM | TGI (DU-145 prostate): 3.53 µM | GI50 (MOLT-4 leukemia): 1.09 µM | TGI (MOLT-4 leukemia): 3.09 µM | GI50 (NCI-H460 lung): 1.99 µM | TGI (NCI-H460 lung): 5.34 µM | GI50 (LOX IMVI melanoma): 1.43 µM | TGI (LOX IMVI melanoma): 2.77 µM | GI50 (OVCAR-8 ovarian): 5.85 µM | TGI (OVCAR-8 ovarian): 23.3 µM | GI50 (786-0 renal): 2.4 µM | TGI (786-0 renal): 6.69 µM | GI50 (HOP-92 NSCLC): 1.65 µM | TGI (HOP-92 NSCLC): 4.63 µM | GI50 (HOP-62 NSCLC): 2.87 µM | TGI (HOP-62 NSCLC): 10.2 µM | GI50 (OVCAR-3 ovarian): 1.43 µM | TGI (OVCAR-3 ovarian): 2.89 µM | GI50 (RPMI-8226 leukemia): 2.56 µM | TGI (RPMI-8226 leukemia): 6.52 µM | GI50 (K-562 leukemia): 1.73 µM | TGI (K-562 leukemia): 4.72 µM | GI50 (NCI/ADR-RES ovarian): 2.17 µM | TGI (NCI/ADR-RES ovarian): 5.36 µM | GI50 (HL-60(TB) leukemia): 2.2 µM | TGI (HL-60(TB) leukemia): 7.33 µM | GI50 (BT-549 breast): 2.1 µM | TGI (BT-549 breast): 7.12 µM | GI50 (SK-OV-3 ovarian): 14.8 µM | TGI (SK-OV-3 ovarian): 31.1 µM | GI50 (SK-MEL-5 melanoma): 10.8 µM | TGI (SK-MEL-5 melanoma): 23.4 µM | GI50 (HCC-2998 colon): 3.16 µM | TGI (HCC-2998 colon): 12.2 µM | GI50 (SF-295 CNS): 1.87 µM | TGI (SF-295 CNS): 7.23 µM | GI50 (MDA-MB-435): 1.61 µM | TGI (MDA-MB-435): 3.72 µM | GI50 (COLO 205 colon): 2.37 µM | GI50 (A549 NSCLC): 3.56 µM | TGI (A549 NSCLC): 16.9 µM | GI50 (SW-620 colon): 1.06 µM | TGI (SW-620 colon): 2.58 µM | GI50 (NCI-H522 lung): 1.95 µM | TGI (NCI-H522 lung): 6.09 µM | GI50 (SF-539 CNS): 4.66 µM | TGI (SF-539 CNS): 15.8 µM | GI50 (HS 578T breast): 1.98 µM | TGI (HS 578T breast): 4.43 µM | GI50 (UACC-257 melanoma): 18.6 µM | TGI (UACC-257 melanoma): 38.5 µM | GI50 (HCT-15 colon): 0.845 µM | TGI (HCT-15 colon): 2.25 µM | GI50 (IGROV1 ovarian): 3.36 µM | TGI (IGROV1 ovarian): 14.7 µM | GI50 (UO-31 renal): 2.26 µM | TGI (UO-31 renal): 8.81 µM | GI50 (SNB-19 CNS): 8.76 µM | TGI (SNB-19 CNS): 24 µM | GI50 (SN12C renal): 3.82 µM | TGI (SN12C renal): 18.4 µM | GI50 (HCT-116 colon): 1.51 µM | TGI (HCT-116 colon): 2.83 µM | GI50 (CAKI-1 renal): 2.54 µM | TGI (CAKI-1 renal): 13.4 µM | GI50 (TK-10 renal): 2.15 µM | TGI (TK-10 renal): 4.63 µM | GI50 (UACC-62 melanoma): 8.85 µM | TGI (UACC-62 melanoma): 22.8 µM | GI50 (T-47D breast): 2.34 µM | TGI (T-47D breast): 7.23 µM | GI50 (MDA-MB-231 breast): 1.61 µM | TGI (MDA-MB-231 breast): 7.56 µM | GI50 (ACHN renal): 2.49 µM | TGI (ACHN renal): 8.11 µM | GI50 (PC-3 prostate): 1.57 µM | TGI (PC-3 prostate): 3.99 µM | GI50 (RXF 393 renal): 1.9 µM | TGI (RXF 393 renal): 4.58 µM | GI50 (SNB-75 CNS): 3.72 µM | TGI (SNB-75 CNS): 15.1 µM
